{"source": "patent US20170107486A1", "about": "“HEPATOCYTE PRODUCTION VIA FORWARD PROGRAMMING BY COMBINED GENETIC AND CHEMICAL ENGINEERING” (Cellular Dynamics International, Inc., priority 2014, published 2017)", "key": {"[1]": {"tested_on": "human rtTET-expressing ESCs transfected with GFH, H1ANR3 and TBX3", "assay": "Hepatic programming efficiency, albumin (ALB) flow analysis", "format": "cell-based", "settings": "for % ALB-expressing cells (hepatic programming efficiency): 0.5 μM added alone along with doxycycline between day 1 and day 7 post-plating, ALB flow analysis on day 13, FIG. 6", "excerpt": "Genes that are either implicated in hepatic differentiation during normal mammalian development or enriched in adult hepatocytes were cloned into the PiggyBac vector (FIG. 3) under the control of the […] promoter (Table 1). To find transcription factors that are able to directly impose mature hepatic fate upon human ESCs, various combinations of transgene-expressing PiggyBac vectors along with the hPBase-expressing vector were introduced into the human ESCs having constitutive expression of rtTET through nucleofection (Minis Ingenio Electroporation solution: cat# MIR50114; program: Amaxa B-016). Nucleofected human ESCs were cultured on matrigel in mTeSR1 (Stem Cell Technologies). Following geneticin (100 μg/ml) selection for stable genomic transgene integration (cells were passaged at lease once prior to differentiation), human ESCs were individualized by accutase treatment and plated to matrigel-coated 12-well plates. Doxycycline (1 μg/ml) was added the next day to induce transgene expression in Hepatocyte Maintenance Medium (HMM, Lonza) supplemented with 0.5 μg/ml insulin, 0.1 μM dexamethasone (dex), and 50 ng/ml Oncostatin M (OSM). After transgene induction for the appropriate number of days, doxycycline was removed, and cells were allowed to transition to hepatocyte-like cells and were maintained in HMM supplemented with 0.5 μg/ml insulin, 0.1 μM dex, and 50 ng/ml OSM prior to characterization. Where appropriate, small molecules, such as MEK inhibitor PD0325901, […] kinase/activin receptor like kinase (ALK5) inhibitor A 83-01, and an analogue of the natural signaling molecule cyclic AMP 8-Bromoadenosine 3',5'-cyclic monophosphate (8-Br-cAMP), were added during hepatic programming. To determine the effect of MEK inhibitor PD0325901 (P) and TGFβ kinase/activin receptor like kinase (ALK5) inhibitor A 83-01 (A) on hepatic programming efficiency, human rtTET-expressing ESCs transfected with […]3 and TBX3 were plated on matrigel-coated 12-well plates at about 0.2×10^6 cells/well in mTeSR supplemented with 10 μM HA100 on day 0. PD0325901 (0.5 μM), A 83-01 (0.5 μM) or both were added along with doxycycline between day 1 and day 7 post-plating. Cells were collected for albumin (ALB) flow analysis on day 13 post-plating. […] To determine the effect of cyclic AMP analog 8-Br-cAMP on hepatic programming, human rtTET-expressing ESCs transfected with […]3 and TBX3 were plated on matrigel-coated 12-well plates at about 0.2×10^6 cells/well in mTeSR supplemented with 10 μM HA100 on day 0. Doxycycline (1 μg/ml), P and A were added between day 1 and day 7 post-plating. Following the removal of doxycycline, P and A on day 7, different concentrations of 8-Br-cAMP were added to promote hepatic transition. Cells were collected for ALB flow analysis on day 13 post-plating."}, "MEK1 and MEK2": {"tested_on": "MEK1 and MEK2", "settings": "Bain et al., 2007; cited from earlier work"}}}
{"compound": "Nc1ncnc2c1nc(Br)n2[C@@H]1O[C@@H]2COP(=O)(O)O[C@H]2[C@H]1O", "note": "[8-Br-cAMP, 8-Bromoadenosine 3′,5′-cyclic monophosphate]", "values": [{"measurement": "saturation concentration for improvement of hepatic programming", "setting": "[1]; added from day 7 after removal of doxycycline, P and A, ALB flow analysis day 13, FIG. 8", "result": "~200", "unit": "µM"}, {"measurement": "hepatic programming (ALB flow analysis)", "setting": "[1]; different concentrations added from day 7 after removal of doxycycline, P and A, ALB flow analysis day 13, FIG. 8", "result": "significantly improved"}]}
{"compound": "Cc1cccc(-c2nn(C(=S)Nc3ccccc3)cc2-c2ccnc3ccccc23)n1", "note": "[A 83-01]", "values": [{"measurement": "% ALB-expressing cells (hepatic programming efficiency)", "setting": "[1]", "result": "significantly improves"}]}
{"compound": "O=C(NOCC1CC1)c1ccc(F)c(F)c1Nc1ccc(I)cc1Cl", "note": "[PD184352]", "values": [{"measurement": "specificity and potency compared to other known MEK inhibitors", "setting": "MEK1 and MEK2", "result": "high degree of specificity and potency"}]}
{"compound": "O=C(NOC[C@H](O)CO)c1ccc(F)c(F)c1Nc1ccc(I)cc1F", "note": "[PD0325901]", "values": [{"measurement": "% ALB-expressing cells (hepatic programming efficiency)", "setting": "[1]", "result": "significantly improves"}]}
